Measured values from PubChem BioAssay (NCI).
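Values below derive from 48-hour exposures of cells grown in 96-well plates, with endpoints linearly interpolated between the two concentrations bracketing the appropriate inhibition level. GI50 marks 50% less growth. TGI denotes the concentration required for complete inhibition of growth.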

Columns and labels:
Assay in all cases: growth of human tumour cells (NCI), 48 h
786-0 renal = tested on: 786-0 renal
A498 renal = tested on: A498 renal
A549 NSCLC = tested on: A549 NSCLC
ACHN renal = tested on: ACHN renal
BT-549 breast = tested on: BT-549 breast
CAKI-1 renal = tested on: CAKI-1 renal
CCRF-CEM leukemia = tested on: CCRF-CEM leukemia
COLO 205 colon = tested on: COLO 205 colon
DU-145 prostate = tested on: DU-145 prostate
EKVX NSCLC = tested on: EKVX NSCLC
HCC-2998 colon = tested on: HCC-2998 colon
HCT-116 colon = tested on: HCT-116 colon
HCT-15 colon = tested on: HCT-15 colon
HL-60(TB) leukemia = tested on: HL-60(TB) leukemia
HOP-62 NSCLC = tested on: HOP-62 NSCLC
HS 578T breast = tested on: HS 578T breast
HT29 colon = tested on: HT29 colon
IGROV1 ovarian = tested on: IGROV1 ovarian
K-562 leukemia = tested on: K-562 leukemia
KM12 colon = tested on: KM12 colon
LOX IMVI melanoma = tested on: LOX IMVI melanoma
M14 melanoma = tested on: M14 melanoma
MALME-3M melanoma = tested on: MALME-3M melanoma
MDA-MB-231 breast = tested on: MDA-MB-231 breast
MDA-MB-435 = tested on: MDA-MB-435
NCI-H226 lung = tested on: NCI-H226 lung
NCI-H23 lung = tested on: NCI-H23 lung
NCI-H522 lung = tested on: NCI-H522 lung
NCI/ADR-RES ovarian = tested on: NCI/ADR-RES ovarian
OVCAR-3 ovarian = tested on: OVCAR-3 ovarian
OVCAR-4 ovarian = tested on: OVCAR-4 ovarian
OVCAR-5 ovarian = tested on: OVCAR-5 ovarian
OVCAR-8 ovarian = tested on: OVCAR-8 ovarian
PC-3 prostate = tested on: PC-3 prostate
RPMI-8226 leukemia = tested on: RPMI-8226 leukemia
RXF 393 renal = tested on: RXF 393 renal
SF-295 CNS = tested on: SF-295 CNS
SF-539 CNS = tested on: SF-539 CNS
SK-MEL-2 melanoma = tested on: SK-MEL-2 melanoma
SK-MEL-28 melanoma = tested on: SK-MEL-28 melanoma
SK-MEL-5 melanoma = tested on: SK-MEL-5 melanoma
SK-OV-3 ovarian = tested on: SK-OV-3 ovarian
SN12C renal = tested on: SN12C renal
SNB-75 CNS = tested on: SNB-75 CNS
SR leukemia = tested on: SR leukemia
SW-620 colon = tested on: SW-620 colon
T-47D breast = tested on: T-47D breast
TK-10 renal = tested on: TK-10 renal
U251 CNS = tested on: U251 CNS
UACC-257 melanoma = tested on: UACC-257 melanoma
UACC-62 melanoma = tested on: UACC-62 melanoma
UO-31 renal = tested on: UO-31 renal

CO/N=C(\COc1ccc2c(=O)cc(-c3ccccc3)oc2c1)c1ccc(F)cc1
GI50 (786-0 renal): 20.7 µM
TGI (786-0 renal): 49.8 µM
GI50 (A498 renal): > 100 µM
TGI (A498 renal): > 100 µM
GI50 (A549 NSCLC): 30.6 µM
TGI (A549 NSCLC): > 100 µM
GI50 (ACHN renal): 34 µM
TGI (ACHN renal): > 100 µM
GI50 (BT-549 breast): > 100 µM
TGI (BT-549 breast): > 100 µM
GI50 (CAKI-1 renal): 22.7 µM
TGI (CAKI-1 renal): 65.6 µM
GI50 (CCRF-CEM leukemia): > 100 µM
TGI (CCRF-CEM leukemia): > 100 µM
GI50 (COLO 205 colon): > 100 µM
TGI (COLO 205 colon): > 100 µM
GI50 (DU-145 prostate): 76.1 µM
TGI (DU-145 prostate): > 100 µM
GI50 (EKVX NSCLC): 74.4 µM
TGI (EKVX NSCLC): > 100 µM
GI50 (HCC-2998 colon): 32.3 µM
TGI (HCC-2998 colon): 96 µM
GI50 (HCT-116 colon): 28.4 µM
TGI (HCT-116 colon): > 100 µM
GI50 (HCT-15 colon): 63.9 µM
TGI (HCT-15 colon): > 100 µM
GI50 (HL-60(TB) leukemia): 21 µM
TGI (HL-60(TB) leukemia): > 100 µM
GI50 (HOP-62 NSCLC): 21 µM
TGI (HOP-62 NSCLC): 50.5 µM
GI50 (HS 578T breast): 51.5 µM
TGI (HS 578T breast): > 100 µM
GI50 (HT29 colon): 33.6 µM
TGI (HT29 colon): > 100 µM
GI50 (IGROV1 ovarian): 21.9 µM
TGI (IGROV1 ovarian): 66.6 µM
GI50 (K-562 leukemia): 36.5 µM
TGI (K-562 leukemia): > 100 µM
GI50 (KM12 colon): 53.8 µM
TGI (KM12 colon): > 100 µM
GI50 (LOX IMVI melanoma): 67.5 µM
TGI (LOX IMVI melanoma): > 100 µM
GI50 (M14 melanoma): 36.1 µM
TGI (M14 melanoma): > 100 µM
GI50 (MALME-3M melanoma): 19.3 µM
TGI (MALME-3M melanoma): 45.9 µM
GI50 (MDA-MB-231 breast): 27.7 µM
TGI (MDA-MB-231 breast): 64 µM
GI50 (MDA-MB-435): 10.3 µM
TGI (MDA-MB-435): 37.1 µM
GI50 (NCI-H226 lung): > 100 µM
TGI (NCI-H226 lung): > 100 µM
GI50 (NCI-H23 lung): 92.7 µM
TGI (NCI-H23 lung): > 100 µM
GI50 (NCI-H522 lung): 23.1 µM
TGI (NCI-H522 lung): 62.3 µM
GI50 (NCI/ADR-RES ovarian): 34.4 µM
TGI (NCI/ADR-RES ovarian): > 100 µM
GI50 (OVCAR-3 ovarian): 14 µM
TGI (OVCAR-3 ovarian): 47.7 µM
GI50 (OVCAR-4 ovarian): 58.2 µM
TGI (OVCAR-4 ovarian): > 100 µM
GI50 (OVCAR-5 ovarian): 42.1 µM
TGI (OVCAR-5 ovarian): > 100 µM
GI50 (OVCAR-8 ovarian): 40.7 µM
TGI (OVCAR-8 ovarian): > 100 µM
GI50 (PC-3 prostate): 37.9 µM
TGI (PC-3 prostate): > 100 µM
GI50 (RPMI-8226 leukemia): > 100 µM
TGI (RPMI-8226 leukemia): > 100 µM
GI50 (RXF 393 renal): 27.7 µM
TGI (RXF 393 renal): 87.5 µM
GI50 (SF-295 CNS): 25.8 µM
TGI (SF-295 CNS): 56.9 µM
GI50 (SF-539 CNS): 94.8 µM
TGI (SF-539 CNS): > 100 µM
GI50 (SK-MEL-2 melanoma): 24 µM
TGI (SK-MEL-2 melanoma): 60.4 µM
GI50 (SK-MEL-28 melanoma): 89.4 µM
TGI (SK-MEL-28 melanoma): > 100 µM
GI50 (SK-MEL-5 melanoma): 35.1 µM
TGI (SK-MEL-5 melanoma): > 100 µM
GI50 (SK-OV-3 ovarian): 41.4 µM
TGI (SK-OV-3 ovarian): > 100 µM
GI50 (SN12C renal): 36.2 µM
TGI (SN12C renal): > 100 µM
GI50 (SNB-75 CNS): 24.1 µM
TGI (SNB-75 CNS): 55 µM
GI50 (SR leukemia): 14.5 µM
TGI (SR leukemia): 47.2 µM
GI50 (SW-620 colon): 42.6 µM
TGI (SW-620 colon): > 100 µM
GI50 (T-47D breast): 68.4 µM
TGI (T-47D breast): > 100 µM
GI50 (TK-10 renal): 41.7 µM
TGI (TK-10 renal): > 100 µM
GI50 (U251 CNS): 29.2 µM
TGI (U251 CNS): 88.5 µM
GI50 (UACC-257 melanoma): 32.1 µM
TGI (UACC-257 melanoma): > 100 µM
GI50 (UACC-62 melanoma): 29.8 µM
TGI (UACC-62 melanoma): > 100 µM
GI50 (UO-31 renal): > 100 µM
TGI (UO-31 renal): > 100 µM
